Experimental data reported in patent US12024502B2, “Biased adrenergic agonists” (University of South Florida, priority 2021, dated 2024).

Key:
ERK1/2 = ERK1/2 activation immunoblot in the presence of PKA inhibitor H89; assay type: cell-based, human; details: β2AR transfected HEK-293 cells; PKA inhibitor H89 present; vs vehicle control
[1] = tested on: human airway smooth muscle (HASM) cells; assay: Magnetic twisting cytometry (MTC) of HASM cells: relaxation and desensitization; assay type: cell-based; details: 1.0 mM ALB or 100 mM C1-S as printed, then 10 μM ISO
Method: CHW cells were transfected to stably express the human β2AR under G418 selection and maintained in monolayers as previously described. Transient transfections of HEK-293T cells with constructs to express human β-arrestin2-myc, human β-arrestin2-GFP, human β2AR and β2AR-GFP, were performed using Lipofectamine 2000 (Invitrogen), and studied 48 hrs later. CHO cells stably expressing a modified β2AR and a modified β-arrestin2 for the ECA were purchased from DiscoverX. In some experiments, these cells were transiently transfected with 5 μg GRK2 cDNA. Primary HASM cells were derived from donor lungs obtained from the National Disease Exchange Registry and maintained as monolayers, and utilized between passages 3 and 6 for the physiological studies. […]
MTC was used to measure dynamic changes in the cytoskeletal stiffness as a surrogate for agonist-induced single-cell relaxation. […] Forced bead motions were detected optically with a spatial resolution of ˜5 nm, and their changes monitored, in real time, in response to b-agonist (HASM cell relaxation). […] The response to 10 μM isoproterenol (final concentration) added to the media was then determined every 1.3 sec. […] The greatest relaxation change from baseline observed at any point over the time course was utilized to quantify the maximal HASM response to isoproterenol.

| Structure (SMILES) | activation of ERK1/2 (ERK1/2) | desensitization of β2AR-mediated HASM cell relaxation response to ISO ([1]; 30 min pretreatment) | desensitization of β2AR-mediated HASM cell relaxation response to ISO ([1]; 4 hour pretreatment) |
| --- | --- | --- | --- |
| CC(C)(C)NCC(O)c1ccc(O)c(CO)c1 (stereo not shown) [ALB, albuterol] | activation of ERK1/2 | caused desensitization | caused desensitization |
| CC(C)NCC(O)c1ccc(O)c(O)c1 (stereo not shown) [ISO, isoproterenol] | activation of ERK1/2 |  |  |
